Reference: publication PMC9867837 (Cancer letters, 2022)

What was measured:
wtpYStat3 = target: T1, wtpYStat3 (Homo sapiens, UniProt P40763); test: EMSA with purified wild-type pYStat3; type: biochemical; conditions: 3 μM H182, 30 min
T1 construct: made in house; host or cells: E. coli BL21(DE3) TKB1 (inducible tyrosine kinase)
From the text: This construct was used to generate the mutants, Stat3C328A, Stat3C426A, Stat3C468A, and Stat3C542S, as described in detail in Supplementary Information “Methods”.
The expression of un-phosphorylated and tyrosine phosphorylated His-tagged recombinant wtStat3 and mutant Stat3 proteins in BL21 (DE3) bacterial cells is described in detail in Supplementary Information “Methods”.
Given the MS data, we conducted site-directed mutagenesis analysis for the effects of Cys mutations (Cys-to-Ala or Cys-to-Ser mutations) on the inhibitory activities or potencies of the compounds. […]
In another case, the nuclear extract was pre-incubated with the radiolabeled probe for 30 min at 30 °C prior to incubation with increasing concentration of H182 at room temperature for 30 min and subjecting to EMSA analysis. Bands corresponding to Stats DNA- binding activities were scanned and quantified using ImageJ and plotted as a percentage of control (vehicle) against the concentration of the inhibitor, from which the IC50 values were derived . […]
These studies were performed as previously reported using the v-Src -transformed NIH3T3/v-Src fibroblasts [1 -5] . […] Luciferase activity was normalized to total protein concentration of cell lysate, which was determined by Bradford assay (Bio-Rad, Hercules, CA) . […]

MDA-MB-231 cells = test: Clonogenic survival assay; type: cell-based, human; conditions: 0.3–2 μM H182, treated once
Experimental: These studies were performed as previously reported. Details are presented in Supplementary Information, “Methods”.
These studies were performed as previously reported . For the clonogenic survival assay, briefly, cells were seeded as single-cell (500 cells per well) in 6 -well plates, then untreated (DMSO control) or treated once the following day with H182 and allowed to grow until large colonies were visible, which were stained with crystal violet for 4 h and imaged with a FluorChem imaging system (Protein Simple, Santa Clara, CA).
For the soft-agar assay, briefly, each well contained a bottom layer of 1 ml of 1% agarose in complete DMEM and a top layer of 1 ml of 0.5% agarose in complete DMEM containing 500 cells. After the upper agar layer containing cells solidified, 1 ml culture medium containing H182 (0-2 µM) or DMSO (control) was overlaid, and the cultures were maintained at 37 °C in the incubator, with the medium replacement every 3-4 days with fresh medium that contains the inhibitor or not. Cells were allowed to culture for 3-4 weeks until large colonies were visible under microscope. The colonies were stained with crystal violet and […]
1.2.8. Confocal microscopy studies
4 cells in 1 ml) in logarithmic
These studies were performed as previously reported. […]

[1] = Mouse liver microsome stability; type: in vitro ADME; conditions: liver microsomes, read-out: Metabolic Stability MLM t1/2
Experimental: (§1) Solubility, human (HLM) and mouse liver microsomal (MLM), and plasma stability studies were performed by Eurofins Cerep Panlabs and Eurofin Discovery Services (www.eurofins.com/PharmaDiscovery), while protein binding studies were performed by Sanford Burnham Prebys Chemical Biology & Drug Discovery Core using standard protocols.

[2] = Human liver microsome stability; type: in vitro ADME; conditions: liver microsomes, read-out: Metabolic Stability HLM t1/2
Experimental: as §1

Plasma stability, mouse = type: in vitro ADME
Experimental: as §1

T1 sequence (P40763 127-711): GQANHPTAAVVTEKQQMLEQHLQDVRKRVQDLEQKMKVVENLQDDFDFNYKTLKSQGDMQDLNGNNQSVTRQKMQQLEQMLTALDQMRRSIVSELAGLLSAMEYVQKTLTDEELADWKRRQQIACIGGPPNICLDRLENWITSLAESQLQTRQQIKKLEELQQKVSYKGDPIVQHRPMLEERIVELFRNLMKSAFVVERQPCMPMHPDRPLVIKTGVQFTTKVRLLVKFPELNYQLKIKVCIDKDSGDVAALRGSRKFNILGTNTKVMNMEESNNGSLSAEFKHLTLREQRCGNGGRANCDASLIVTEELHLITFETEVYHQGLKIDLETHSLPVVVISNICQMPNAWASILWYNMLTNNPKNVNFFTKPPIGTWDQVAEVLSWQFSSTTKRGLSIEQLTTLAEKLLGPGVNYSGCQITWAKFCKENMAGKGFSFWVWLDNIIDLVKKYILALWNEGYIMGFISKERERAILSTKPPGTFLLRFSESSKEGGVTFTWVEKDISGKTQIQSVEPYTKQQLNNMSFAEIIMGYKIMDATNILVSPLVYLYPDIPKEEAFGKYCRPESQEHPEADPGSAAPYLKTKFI

O=C([C@H]1CCN1S(=O)(=O)c1c(F)c(F)c(F)c(F)c1F)N(Cc1ccc(C2CCCCC2)cn1)c1ccc2c(=O)[nH]ncc2c1 [Compound H182]
Effect on DNA-binding activity of wtpYStat3 (wtpYStat3): strong inhibition | Effect on anchorage-dependent colony formation (MDA-MB-231 cells): potently and dose-dependently inhibited | half-life [1]: > 150 min | half-life [2]: 21 min | remaining at 1 h (Plasma stability, mouse; 1 h): 69% | remaining at 2 h (Plasma stability, mouse; 2 h): 23%
